Experimental data: US8426345B2, “Method of drug design” (Alchemia Limited, priority 2005, dated 2013)

Target: T1, Human SST5 somatostatin receptor (Homo sapiens, UniProt P35346)
T1 construct: expressed in transfected cells; host or cells: HEK-293 EBNA cells (membranes)
Assay: Filter plate radio-ligand binding assay for SST5 receptor ([125I]SST-14 displacement)
Details: 3P library; for % SST5 radio-ligand binding displaced at conc 0.001: conc 0.001 μM; for % SST5 radio-ligand binding displaced at conc 0.10: conc 0.10 μM; for % SST5 radio-ligand binding displaced at conc 0.25: conc 0.25 μM; for % SST5 radio-ligand binding displaced at conc 0.5: conc 0.5 μM; for % SST5 radio-ligand binding displaced at conc 1.0: conc 1.0 μM; for % SST5 radio-ligand binding displaced at conc 10: conc 10 μM

T1 sequence (P35346 whole entry): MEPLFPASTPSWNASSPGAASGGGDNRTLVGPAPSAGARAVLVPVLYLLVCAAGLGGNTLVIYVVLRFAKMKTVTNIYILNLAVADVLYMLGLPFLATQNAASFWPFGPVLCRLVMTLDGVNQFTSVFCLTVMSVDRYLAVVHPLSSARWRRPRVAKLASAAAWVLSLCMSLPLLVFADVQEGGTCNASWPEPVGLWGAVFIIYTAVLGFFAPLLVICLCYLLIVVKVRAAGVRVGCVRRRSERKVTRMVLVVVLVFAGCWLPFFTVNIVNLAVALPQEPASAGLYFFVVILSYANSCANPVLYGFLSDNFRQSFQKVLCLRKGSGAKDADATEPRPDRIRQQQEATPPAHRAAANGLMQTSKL

Structure (SMILES): COCC1OC(OCc2ccc3ccccc3c2)C(NC(=O)CCCN)C(OCc2ccc(-c3ccccc3)cc2)C1O (mixture of isomers) [Compound 128]
- % SST5 radio-ligand binding displaced at conc 0.001: − (% SST5 radio-ligand binding displaced at cone (μM) −<40%)
- % SST5 radio-ligand binding displaced at conc 0.10: − (% SST5 radio-ligand binding displaced at cone (μM) −<40%)
- % SST5 radio-ligand binding displaced at conc 0.25: − (% SST5 radio-ligand binding displaced at cone (μM) −<40%)
- % SST5 radio-ligand binding displaced at conc 0.5: ++ (% SST5 radio-ligand binding displaced at conc (μM) >60%)
- % SST5 radio-ligand binding displaced at conc 1.0: + (% SST5 radio-ligand binding displaced at cone (μM) 60>+>40%)
- % SST5 radio-ligand binding displaced at conc 10: ++ (% SST5 radio-ligand binding displaced at conc (μM) >60%)

Structure (SMILES): COCC1OC(OCc2ccc3ccccc3c2)C(NC(=O)CCCN)C(OCc2ccc3ccccc3c2)C1O (mixture of isomers) [Compound 129]
- % SST5 radio-ligand binding displaced at conc 0.001: − (% SST5 radio-ligand binding displaced at cone (μM) −<40%)
- % SST5 radio-ligand binding displaced at conc 0.10: + (% SST5 radio-ligand binding displaced at cone (μM) 60>+>40%)
- % SST5 radio-ligand binding displaced at conc 0.25: − (% SST5 radio-ligand binding displaced at cone (μM) −<40%)
- % SST5 radio-ligand binding displaced at conc 1.0: ++ (% SST5 radio-ligand binding displaced at conc (μM) >60%)
- % SST5 radio-ligand binding displaced at conc 10: ++ (% SST5 radio-ligand binding displaced at conc (μM) >60%)

Structure (SMILES): COCC1OC(OCc2ccc3ccccc3c2)C(NC(=O)CCCN)C(OCc2cccc(O)c2)C1O (mixture of isomers) [Compound 130]
- % SST5 radio-ligand binding displaced at conc 10: ++ (% SST5 radio-ligand binding displaced at conc (μM) >60%)

Structure (SMILES): COCC1OC(OCc2ccc3ccccc3c2)C(NC(=O)CCCN)C(OCc2ccc(-c3ccccc3)cc2)C1O (mixture of isomers) [Compound 131]
- % SST5 radio-ligand binding displaced at conc 10: ++ (% SST5 radio-ligand binding displaced at conc (μM) >60%)

Structure (SMILES): COCC1OC(OCc2ccc3ccccc3c2)C(NC(=O)CCCN)C(OCc2ccc3ccccc3c2)C1O (mixture of isomers) [Compound 132]
- % SST5 radio-ligand binding displaced at conc 10: ++ (% SST5 radio-ligand binding displaced at conc (μM) >60%)

Structure (SMILES): COCC1OC(OCc2ccc3ccccc3c2)C(NC(=O)CCCN)C(OCc2ccc(Cl)cc2)C1O (mixture of isomers) [Compound 133]
- % SST5 radio-ligand binding displaced at conc 10: ++ (% SST5 radio-ligand binding displaced at conc (μM) >60%)

Structure (SMILES): COCC1OC(OCc2ccc(Cl)cc2)C(NC(=O)CN)C(OCc2ccccc2)C1O (mixture of isomers) [Compound 160]
- % SST5 radio-ligand binding displaced at conc 0.001: − (% SST5 radio-ligand binding displaced at cone (μM) −<40%)
- % SST5 radio-ligand binding displaced at conc 0.10: − (% SST5 radio-ligand binding displaced at cone (μM) −<40%)
- % SST5 radio-ligand binding displaced at conc 0.5: − (% SST5 radio-ligand binding displaced at cone (μM) −<40%)
- % SST5 radio-ligand binding displaced at conc 1.0: − (% SST5 radio-ligand binding displaced at cone (μM) −<40%)
- % SST5 radio-ligand binding displaced at conc 10: − (% SST5 radio-ligand binding displaced at cone (μM) −<40%)

Structure (SMILES): COCC1OC(OCc2ccc(Cl)cc2)C(NC(=O)CN)C(OCc2ccc(Cl)cc2)C1O (mixture of isomers) [Compound 161]
- % SST5 radio-ligand binding displaced at conc 0.001: − (% SST5 radio-ligand binding displaced at cone (μM) −<40%)
- % SST5 radio-ligand binding displaced at conc 0.10: − (% SST5 radio-ligand binding displaced at cone (μM) −<40%)
- % SST5 radio-ligand binding displaced at conc 0.5: − (% SST5 radio-ligand binding displaced at cone (μM) −<40%)
- % SST5 radio-ligand binding displaced at conc 1.0: − (% SST5 radio-ligand binding displaced at cone (μM) −<40%)
- % SST5 radio-ligand binding displaced at conc 10: ++ (% SST5 radio-ligand binding displaced at conc (μM) >60%)

Structure (SMILES): COCC1OC(OCc2ccc(Cl)cc2)C(NC(=O)CN)C(OCc2ccc(-c3ccccc3)cc2)C1O (mixture of isomers) [Compound 162]
- % SST5 radio-ligand binding displaced at conc 0.001: − (% SST5 radio-ligand binding displaced at cone (μM) −<40%)
- % SST5 radio-ligand binding displaced at conc 0.10: − (% SST5 radio-ligand binding displaced at cone (μM) −<40%)
- % SST5 radio-ligand binding displaced at conc 0.25: − (% SST5 radio-ligand binding displaced at cone (μM) −<40%)
- % SST5 radio-ligand binding displaced at conc 0.5: − (% SST5 radio-ligand binding displaced at cone (μM) −<40%)
- % SST5 radio-ligand binding displaced at conc 1.0: − (% SST5 radio-ligand binding displaced at cone (μM) −<40%)
- % SST5 radio-ligand binding displaced at conc 10: + (% SST5 radio-ligand binding displaced at cone (μM) 60>+>40%)

Structure (SMILES): COCC1OC(OCc2ccc(Cl)cc2)C(NC(=O)CN)C(OCc2ccc3ccccc3c2)C1O (mixture of isomers) [Compound 163]
- % SST5 radio-ligand binding displaced at conc 0.001: − (% SST5 radio-ligand binding displaced at cone (μM) −<40%)
- % SST5 radio-ligand binding displaced at conc 0.10: − (% SST5 radio-ligand binding displaced at cone (μM) −<40%)
- % SST5 radio-ligand binding displaced at conc 0.5: − (% SST5 radio-ligand binding displaced at cone (μM) −<40%)
- % SST5 radio-ligand binding displaced at conc 1.0: − (% SST5 radio-ligand binding displaced at cone (μM) −<40%)
- % SST5 radio-ligand binding displaced at conc 10: ++ (% SST5 radio-ligand binding displaced at conc (μM) >60%)

Structure (SMILES): COC1C(O)C(COCc2ccc3ccccc3c2)OC(OCc2ccc(Cl)cc2)C1NC(=O)C1CCCN1 (mixture of isomers) [Compound 165]
- % SST5 radio-ligand binding displaced at conc 0.5: − (% SST5 radio-ligand binding displaced at cone (μM) −<40%)
- % SST5 radio-ligand binding displaced at conc 10: ++ (% SST5 radio-ligand binding displaced at conc (μM) >60%)

Structure (SMILES): COC1C(O)C(COCc2ccc3ccccc3c2)OC(OCc2ccc(Cl)cc2)C1NC(=O)C1CCCN1 (mixture of isomers) [Compound 167]
- % SST5 radio-ligand binding displaced at conc 0.5: ++ (% SST5 radio-ligand binding displaced at conc (μM) >60%)
- % SST5 radio-ligand binding displaced at conc 10: ++ (% SST5 radio-ligand binding displaced at conc (μM) >60%)

Structure (SMILES): COCC1OC(OCc2ccc(Cl)cc2)C(NC(=O)CN)C(OCc2ccc(-c3ccccc3)cc2)C1O (mixture of isomers) [Compound 173]
- % SST5 radio-ligand binding displaced at conc 0.25: − (% SST5 radio-ligand binding displaced at cone (μM) −<40%)
- % SST5 radio-ligand binding displaced at conc 1.0: − (% SST5 radio-ligand binding displaced at cone (μM) −<40%)

Structure (SMILES): COCC1OC(OCc2ccc(Cl)cc2)C(NC(=O)CN)C(OCc2ccc3ccccc3c2)C1O (mixture of isomers) [Compound 174]
- % SST5 radio-ligand binding displaced at conc 0.25: − (% SST5 radio-ligand binding displaced at cone (μM) −<40%)
- % SST5 radio-ligand binding displaced at conc 1.0: − (% SST5 radio-ligand binding displaced at cone (μM) −<40%)

Structure (SMILES): COCC1OC(OCc2ccc(Cl)cc2)C(NC(=O)CN)C(OCc2ccc3ccccc3c2)C1O (mixture of isomers) [Compound 175]
- % SST5 radio-ligand binding displaced at conc 0.25: − (% SST5 radio-ligand binding displaced at cone (μM) −<40%)
- % SST5 radio-ligand binding displaced at conc 1.0: − (% SST5 radio-ligand binding displaced at cone (μM) −<40%)

Structure (SMILES): COC1C(O)C(COCc2ccccc2)OC(OCc2ccc(Cl)cc2)C1NC(=O)CN (mixture of isomers) [Compound 176]
- % SST5 radio-ligand binding displaced at conc 0.25: − (% SST5 radio-ligand binding displaced at cone (μM) −<40%)
- % SST5 radio-ligand binding displaced at conc 1.0: − (% SST5 radio-ligand binding displaced at cone (μM) −<40%)

Structure (SMILES): COC1C(O)C(COCc2ccc(Cl)cc2)OC(OCc2ccc(Cl)cc2)C1NC(=O)CN (mixture of isomers) [Compound 177]
- % SST5 radio-ligand binding displaced at conc 0.25: − (% SST5 radio-ligand binding displaced at cone (μM) −<40%)
- % SST5 radio-ligand binding displaced at conc 1.0: − (% SST5 radio-ligand binding displaced at cone (μM) −<40%)

Structure (SMILES): COC1C(O)C(COCc2ccc(-c3ccccc3)cc2)OC(OCc2ccc(Cl)cc2)C1NC(=O)CN (mixture of isomers) [Compound 178]
- % SST5 radio-ligand binding displaced at conc 0.25: − (% SST5 radio-ligand binding displaced at cone (μM) −<40%)
- % SST5 radio-ligand binding displaced at conc 1.0: − (% SST5 radio-ligand binding displaced at cone (μM) −<40%)

Structure (SMILES): COC1C(O)C(COCc2ccc3ccccc3c2)OC(OCc2ccc(Cl)cc2)C1NC(=O)CN (mixture of isomers) [Compound 179]
- % SST5 radio-ligand binding displaced at conc 0.25: − (% SST5 radio-ligand binding displaced at cone (μM) −<40%)
- % SST5 radio-ligand binding displaced at conc 1.0: − (% SST5 radio-ligand binding displaced at cone (μM) −<40%)

Structure (SMILES): COC[C@H]1OC(OCc2ccc3ccccc3c2)[C@H](NC(=O)CCN)[C@@H](OCc2ccccc2)[C@@H]1O (single isomer, unassigned) [Compound 87]
- % SST5 radio-ligand binding displaced at conc 0.25: − (% SST5 radio-ligand binding displaced at cone (μM) −<40%)
- % SST5 radio-ligand binding displaced at conc 1.0: − (% SST5 radio-ligand binding displaced at cone (μM) −<40%)

Structure (SMILES): COC[C@H]1OC(OCc2ccc3ccccc3c2)[C@H](NC(=O)CCN)[C@@H](OCc2ccccc2)[C@@H]1O (single isomer, unassigned) [Compound 88]
- % SST5 radio-ligand binding displaced at conc 0.25: − (% SST5 radio-ligand binding displaced at cone (μM) −<40%)
- % SST5 radio-ligand binding displaced at conc 1.0: − (% SST5 radio-ligand binding displaced at cone (μM) −<40%)

Structure (SMILES): COC[C@H]1OC(OCc2ccc3ccccc3c2)[C@H](NC(=O)CCN)[C@@H](OCc2ccc(Cl)cc2)[C@@H]1O (single isomer, unassigned) [Compound 89]
- % SST5 radio-ligand binding displaced at conc 0.25: − (% SST5 radio-ligand binding displaced at cone (μM) −<40%)
- % SST5 radio-ligand binding displaced at conc 1.0: − (% SST5 radio-ligand binding displaced at cone (μM) −<40%)

Structure (SMILES): COC[C@H]1OC(OCc2ccc3ccccc3c2)[C@H](NC(=O)CCN)[C@@H](OCc2ccc(Cl)cc2)[C@@H]1O (single isomer, unassigned) [Compound 90]
- % SST5 radio-ligand binding displaced at conc 0.25: + (% SST5 radio-ligand binding displaced at cone (μM) 60>+>40%)
- % SST5 radio-ligand binding displaced at conc 1.0: ++ (% SST5 radio-ligand binding displaced at conc (μM) >60%)

Structure (SMILES): COC[C@H]1OC(OCc2ccc3ccccc3c2)[C@H](NC(=O)CCN)[C@@H](OCc2ccc(-c3ccccc3)cc2)[C@@H]1O (single isomer, unassigned) [Compound 91]
- % SST5 radio-ligand binding displaced at conc 0.25: − (% SST5 radio-ligand binding displaced at cone (μM) −<40%)
- % SST5 radio-ligand binding displaced at conc 1.0: − (% SST5 radio-ligand binding displaced at cone (μM) −<40%)

Structure (SMILES): COC[C@H]1OC(OCc2ccc3ccccc3c2)[C@H](NC(=O)CCN)[C@@H](OCc2ccc3ccccc3c2)[C@@H]1O (single isomer, unassigned) [Compound 92]
- % SST5 radio-ligand binding displaced at conc 0.25: − (% SST5 radio-ligand binding displaced at cone (μM) −<40%)
- % SST5 radio-ligand binding displaced at conc 1.0: + (% SST5 radio-ligand binding displaced at cone (μM) 60>+>40%)
